According to US20260207704A1, “STAPLED PEPTIDES AND METHODS THEREOF” (priority 2022, published 2026):
*1 amine or outer side, *2 acyl side, *3 side chain or, on linkers, in order; H or OH if unused. Bridges are numbered along the chain shown (N, C = ends). Primed or numbered codes have the meaning given here. [ ]: non-standard residue; d: D form. PyrS2″ = (S)-3-amino-1-((pent-4-en-1-yloxy)carbonyl)pyrrolidine-3-carboxylic acid (olefin stapling residue), C=CCCCOC(=O)N1CC[C@@](N[*:1])(C(=O)[*:2])C1; Phe(3-COOH) = N[C@@H](Cc1cccc(C(=O)O)c1)C(=O)O; BztA = aromatic amino acid residue; tBuAla = CC(C)(C)C[C@H](N)C(=O)O; 3Thi = N[C@@H](Cc1ccsc1)C(=O)O; GlnR = not defined here; PL3 = not defined here; B5 = not defined here

B1: I-90 (peptide)
peptide: Ac-[PL3]D[tBuAla][B5]N[Phe(3-COOH)]QAFK[PyrS2″][3Thi][BztA][GlnR]A-NH2
modifications: staple 1-4 (inferred); bridge 10-14; not fully specified (residue 10, bridges); printed as Ac-PL3-Asp-Npg-B5-Asn-3COOHF-Gln-Ala-Phe-Lys*3-PyrS2-3Thi-BztA-GlnR*3-Ala-NH2; reading uncertain; also: Lys10 and GlnR14 marked *3

target: beta-catenin (human); test: fluorescence polarization; bin >50 nM; settings: not given
Sequence (B6V8E6 146-665 limits assumed): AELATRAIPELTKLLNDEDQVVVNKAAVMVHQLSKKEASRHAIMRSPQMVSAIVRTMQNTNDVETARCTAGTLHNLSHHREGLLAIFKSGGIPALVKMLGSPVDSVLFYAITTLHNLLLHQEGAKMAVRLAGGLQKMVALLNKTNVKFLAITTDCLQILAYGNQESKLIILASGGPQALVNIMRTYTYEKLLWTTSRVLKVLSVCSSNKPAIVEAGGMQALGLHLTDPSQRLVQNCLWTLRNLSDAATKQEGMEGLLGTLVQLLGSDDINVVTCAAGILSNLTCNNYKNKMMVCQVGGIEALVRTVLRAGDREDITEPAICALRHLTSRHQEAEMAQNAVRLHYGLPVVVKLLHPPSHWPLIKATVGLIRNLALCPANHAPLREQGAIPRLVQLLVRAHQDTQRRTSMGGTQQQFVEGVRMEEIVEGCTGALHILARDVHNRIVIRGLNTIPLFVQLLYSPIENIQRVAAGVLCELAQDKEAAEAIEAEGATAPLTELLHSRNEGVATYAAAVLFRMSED

In the case of B1, the IC50 is reported as under 200 nM.

tested on: DLD1 reporter; test: reporter assay (DLD1 reporter assay); format: cell-based; settings: read-out: DLD1 4% Abs IC50; DLD1 4%
Text: Various technologies can be utilized for characterizing and/or assessing provided technologies (e.g., agents (e.g., various peptides), compositions, methods, etc.) in accordance with the present disclosure. As described herein, in some embodiments, a useful technology is or comprises fluorescence polarization. In some embodiments, a useful technology assesses LogP or LogD. In some embodiments, a useful technology is or comprises a CHI LogD assay. In some embodiments, a useful technology assesses solubility. In some embodiments, a useful technology is or comprises NanoBRET. In some embodiments, a useful technology is or comprises a reporter assay (e.g., DLD1 reporter assay). In some embodiments, a useful technology is or comprises alphascreen. Certain useful protocols are described in the Examples. Those skilled in the art appreciate that suitable adjustments may be made to such protocols, e.g., according to specific conditions, agents, purposes, etc.
Various technologies can be utilized to assess technologies of the present disclosure. For example, in some embodiments, solubility, LogD, interactions with targets, etc. of various agents such as stapled peptides were assessed using technologies described in WO 2022/261257 (e.g., those in its Examples). In some embodiments, solubility, shake flask LogD, and binding to beta-catenin were assessed. In some embodiments, an assay for assessing interactions, e.g., with beta-catenin, was fluorescence polarization as described in WO 2022/261257. In some embodiments, an assay was Nano-BRET target engagement assay that assessed beta-catenin/TCF4 engagement as described in WO 2022/261257. In some embodiments, an assay was a reporter assay as reported in Example 4 of WO 2022/261257. In some embodiments, an assay was a COLO320DM proliferation assay as reported in Example 4 of WO 2022/261257.

`CC(=O)N1CCC[C@]12CC=CCCCC1(CCCC=CCCCOC(=O)N3CC[C@@]4(C3)NC(=O)[C@H](CCCCNC(=O)CC[C@@H](C(=O)NC(C)(C)C(N)=O)NC(=O)[C@H](Cc3csc5ccccc35)NC(=O)[C@H](Cc3ccccc3C(F)(F)F)NC4=O)NC(=O)[C@H](Cc3ccccc3)NC(=O)[C@H](C)NC(=O)[C@H](C)NC(=O)[C@H](CN(CC(=O)O)CC(F)(F)F)NC(=O)[C@H](CC(=O)O)NC1=O)NC(=O)[C@H](CC(C)(C)C)NC(=O)[C@H](CC(=O)O)NC2=O` (single isomer, unassigned) [I-126, Ac-PL3-Asp-Npg-B5-Asp-TfeGA-Ala-Ala-Phe-Lys*3-PyrS2-2F3MeF-BztA-GlnR*3-Aib-NH2] and `CC(=O)N1CCC[C@]12CC=CCCCC1(CCCC=CCCCOC(=O)N3CC[C@@]4(C3)NC(=O)[C@H](CCCCNC(=O)CC[C@@H](C(=O)N[C@H](C(N)=O)C(C)C)NC(=O)[C@H](Cc3csc5ccccc35)NC(=O)[C@H](Cc3ccccc3C(F)(F)F)NC4=O)NC(=O)[C@H](Cc3ccccc3)NC(=O)[C@H](C)NC(=O)[C@H](C)NC(=O)[C@H](CN(CC(=O)O)CC(F)(F)F)NC(=O)[C@H](CC(=O)O)NC1=O)NC(=O)[C@H](CC(C)(C)C)NC(=O)[C@H](CC(=O)O)NC2=O` (relative stereo) [I-129, Ac-PL3-Asp-Npg-B5-Asp-TfeGA-Ala-Ala-Phe-Lys*3-PyrS2-2F3MeF-BztA-GlnR*3-Val-NH2] fall in the same range of IC50: 1000 to 5000 nM for the first, 1000 to 5000 nM for the second.

`CC(=O)N1CCC[C@]12CC=CCCCC1(CCCC=CCCCOC(=O)N3CC[C@@]4(C3)NC(=O)[C@H](CCCCNC(=O)CC[C@@H](C(=O)N[C@@H](CC(C)C)C(N)=O)NC(=O)[C@H](Cc3csc5ccccc35)NC(=O)[C@H](Cc3ccccc3C(F)(F)F)NC4=O)NC(=O)[C@H](Cc3ccccc3)NC(=O)[C@H](C)NC(=O)[C@H](C)NC(=O)[C@H](Cc3cccc(C(=O)O)c3)NC(=O)[C@H](CC(=O)O)NC1=O)NC(=O)[C@H](CC1CCCCC1)NC(=O)[C@H](CC(=O)O)NC2=O` (single isomer, unassigned) [I-106, Ac-PL3-Asp-Cha-B5-Asp-3COOHF-Ala-Ala-Phe-Lys*3-PyrS2-2F3MeF-BztA-GlnR*3-Leu-NH2] and `CC(=O)N1CCC[C@]12CC=CCCCC1(CCCC=CCCCOC(=O)N3CC[C@@]4(C3)NC(=O)[C@H](CCCCNC(=O)CC[C@@H](C(=O)N[C@@H](C)C(N)=O)NC(=O)[C@H](Cc3csc5ccccc35)NC(=O)[C@H](Cc3ccccc3C(F)(F)F)NC4=O)NC(=O)[C@H](Cc3ccccc3)NC(=O)[C@H](C)NC(=O)[C@H](CC(C)(C)C)NC(=O)[C@H](Cc3cccc(C(=O)O)c3)NC(=O)[C@H](CC(=O)O)NC1=O)NC(=O)[C@H](CC(C)(C)C)NC(=O)[C@H](CC(=O)O)NC2=O` (single isomer, unassigned) [I-99, Ac-PL3-Asp-Npg-B5-Asp-3COOHF-Npg-Ala-Phe-Lys*3-PyrS2-2F3MeF-BztA-GlnR*3-Ala-NH2] cannot be ordered by IC50: at most 1000 nM for the first, at most 1000 nM for the second.

`CC(=O)N1CCC[C@]12CC=CCCCC1(CCCC=CCCCOC(=O)N3CC[C@@]4(C3)NC(=O)[C@H](CCCCNC(=O)CC[C@@H](C(=O)N[C@@H](CC(C)C)C(=O)N[C@@H](CO)C(N)=O)NC(=O)[C@H](Cc3csc5ccccc35)NC(=O)[C@H](Cc3ccccc3C(F)(F)F)NC4=O)NC(=O)[C@H](Cc3ccccc3)NC(=O)[C@H](C)NC(=O)C(C)(C)NC(=O)[C@H](Cc3cccc(C(=O)O)c3)NC(=O)[C@H](CC(=O)O)NC1=O)NC(=O)[C@H](CC(C)(C)C)NC(=O)[C@H](CC(N)=O)NC2=O` (relative stereo) [I-144, Ac-PL3-Asn-Npg-B5-Asp-3COOHF-Aib-Ala-Phe-Lys*3-PyrS2-2F3MeF-BztA-GlnR*3-Leu-Ser-NH2] and `CC(=O)N1CCC[C@]12CC=CCCCC1(CCCC=CCCCOC(=O)N3CC[C@@]4(C3)NC(=O)[C@H](CCCCNC(=O)CC[C@@H](C(=O)N[C@@H](CC(C)C)C(=O)N[C@@H](CO)C(N)=O)NC(=O)[C@H](Cc3csc5ccccc35)NC(=O)[C@H](Cc3ccccc3C(F)(F)F)NC4=O)NC(=O)[C@H](Cc3ccccc3)NC(=O)[C@H](C)NC(=O)C3(CC3)NC(=O)[C@H](Cc3cccc(C(=O)O)c3)NC(=O)[C@H](CC(=O)O)NC1=O)NC(=O)[C@H](CC(C)(C)C)NC(=O)[C@H](CC(=O)O)NC2=O` (relative stereo) [I-139, Ac-PL3-Asp-Npg-B5-Asp-3COOHF-Cpg-Ala-Phe-Lys*3-PyrS2-2F3MeF-BztA-GlnR*3-Leu-Ser-NH2] cannot be ordered by IC50: 1000 to 5000 nM for the first, at most 1000 nM for the second.

`CC(=O)N1CCC[C@]12CC=CCCCC1(CCCC=CCCCOC(=O)N3CC[C@@]4(C3)NC(=O)[C@H](CCCCNC(=O)CC[C@@H](C(=O)N[C@@H](CC(C)C)C(=O)N[C@@H](CO)C(N)=O)NC(=O)[C@H](Cc3csc5ccccc35)NC(=O)[C@H](Cc3ccccc3C(F)(F)F)NC4=O)NC(=O)[C@H](Cc3ccccc3)NC(=O)[C@H](C)NC(=O)C3(CCC3)NC(=O)[C@H](Cc3cccc(C(=O)O)c3)NC(=O)[C@H](CC(=O)O)NC1=O)NC(=O)[C@H](CC(C)(C)C)NC(=O)[C@H](CC(=O)O)NC2=O` (relative stereo) [I-140, Ac-PL3-Asp-Npg-B5-Asp-3COOHF-Cbg-Ala-Phe-Lys*3-PyrS2-2F3MeF-BztA-GlnR*3-Leu-Ser-NH2] and `CC(=O)N1CCC[C@]12CC=CCCCC1(CCCC=CCCCOC(=O)N3CC[C@@]4(C3)NC(=O)[C@H](CCCCNC(=O)CC[C@@H](C(=O)N[C@@H](CC(C)C)C(=O)N[C@@H](CO)C(N)=O)NC(=O)[C@H](Cc3csc5ccccc35)NC(=O)[C@H](Cc3ccccc3C(F)(F)F)NC4=O)NC(=O)[C@H](Cc3ccccc3)NC(=O)[C@H](C)NC(=O)C3(CCCC3)NC(=O)[C@H](Cc3cccc(C(=O)O)c3)NC(=O)[C@H](CC(=O)O)NC1=O)NC(=O)[C@H](CC(C)(C)C)NC(=O)[C@H](CC(=O)O)NC2=O` (relative stereo) [I-141, Ac-PL3-Asp-Npg-B5-Asp-3COOHF-CyLeu-Ala-Phe-Lys*3-PyrS2-2F3MeF-BztA-GlnR*3-Leu-Ser-NH2] cannot be ordered by IC50: at most 1000 nM for the first, at most 1000 nM for the second.

First: CC(=O)N1CCC[C@]12CC=CCCCC1(CCCC=CCCCOC(=O)N3CC[C@@]4(C3)NC(=O)[C@H](CCCCNC(=O)CCC[C@@H](C(=O)N[C@@H](C)C(N)=O)NC(=O)[C@H](Cc3csc5ccccc35)NC(=O)[C@H](Cc3ccsc3)NC4=O)NC(=O)[C@H](Cc3ccccc3)NC(=O)[C@H](C)NC(=O)[C@H](C)NC(=O)[C@H](Cc3cccc(C(=O)O)c3)NC(=O)[C@H](CC(=O)O)NC1=O)NC(=O)[C@H](CC(C)(C)C)NC(=O)[C@H](CC(=O)O)NC2=O (relative stereo) [I-183, Ac-PL3-Asp-Npg-B5-Asp-3COOHF-Ala-Ala-Phe-Lys*3-PyrS2-3Thi-BztA-hGlnR*3-Ala-NH2]
Second: CC(=O)N1CCC[C@]12CC=CCCCC1(CCCC=CCCCOC(=O)N3CC[C@@]4(C3)NC(=O)[C@H](CCCCNC(=O)CC[C@@H](C(=O)N[C@@H](C)C(N)=O)NC(=O)[C@H](Cc3csc5ccccc35)NC(=O)[C@H](Cc3ccsc3)NC4=O)NC(=O)[C@H](Cc3ccccc3)NC(=O)[C@H](C)NC(=O)C(C)(C)NC(=O)[C@H](Cc3cccc(C(=O)O)c3)NC(=O)[C@H](CC(=O)O)NC1=O)NC(=O)[C@H](CC(C)(C)C)NC(=O)[C@H]([C@H](C)O)NC2=O (relative stereo) [I-163, Ac-PL3-aThr-Npg-B5-Asp-3COOHF-Aib-Ala-Phe-Lys*3-PyrS2-3Thi-BztA-GlnR*3-Ala-NH2]
The IC50 of the first is lower: 1000 to 5000 nM for the first, over 5000 nM for the second. The first is the more potent here.

Molecule `CC(=O)N1CCC[C@]12CC=CCCCC1(CCCC=CCCCOC(=O)N3CC[C@@]4(C3)NC(=O)[C@H](CCCCNC(=O)CC[C@@H](C(=O)N[C@@H](C)C(N)=O)NC(=O)[C@H](Cc3csc5ccccc35)NC(=O)[C@H](Cc3ccccc3C(F)(F)F)NC4=O)NC(=O)[C@H](Cc3ccccc3)NC(=O)[C@H](C)NC(=O)C(C)(C)NC(=O)[C@H](Cc3cccc(C(=O)O)c3)NC(=O)[C@H](CCC(=O)O)NC1=O)NC(=O)[C@H](CC(C)(C)C)NC(=O)[C@H](CCC(=O)O)NC2=O` (relative stereo) [I-291, Ac-PL3-Glu-Npg-B5-Glu-3COOHF-Aib-Ala-Phe-Lys*3-PyrS2-2F3MeF-BztA-GlnR*3-Ala-NH2] has an IC50 of 1000 to 5000 nM.

same assay, conditions: read-out: DLD1 4% Abs IC50; DLD1 reporter, 4%

For `CC(=O)N1CCC[C@]12CC=CCCCC1(CCCC=CCCCOC(=O)N3CC[C@@]4(C3)NC(=O)[C@H](Cc3cn(nn3)CCCC[C@@H](C(=O)N[C@@H](C)C(N)=O)NC(=O)[C@H](Cc3csc5ccccc35)NC(=O)[C@H](Cc3ccsc3)NC4=O)NC(=O)[C@H](Cc3ccccc3)NC(=O)[C@H](C)NC(=O)C(C)(C)NC(=O)[C@H](Cc3cccc(C(=O)O)c3)NC(=O)[C@H](CC(=O)O)NC1=O)NC(=O)[C@H](CC(C)(C)C)NC(=O)[C@H](CC(=O)O)NC2=O` (stereo partly drawn) [I-336, Ac-PL3-Asp-Npg-B5-Asp-3COOHF-Aib-Ala-Phe-sAla*3-PyrS2-3Thi-BztA-TriAzLys*3-Ala-NH2], the IC50 was 1000 to 5000 nM.
